In US4987121A, “Erythropoietic factor” (Center for Innovative Technology, priority 1988, dated 1991):
Ends that are not written are not given here.

Experiments:
[1] = test system: peripheral blood BFU-E; experiment: peripheral blood BFU-E assay in the absence of T cells and macrophages; type: cell-based, human; conditions: for BFU-E/culture ± SEM: peripheral blood cells, T cells and macrophages removed
Procedure: The cultures contained peripheral blood derived cells instead of bone marrow cells. After Ficoll-Hypaque separation, preparations from peripheral blood were further incubated in plastic dishes twice for thirty minutes to remove macrophages. The majority of T cells were removed by rosetting with sheep red blood cells, available from the Lampire Corporation of Pipersville, Pa., and centrifugation. The remaining T-cells were removed by incubating the cell suspension with Leu-1 antibody, available from Becton-Dickenson, Inc. of Mountain View, Calif., and rabbit complement. Less than 0.3% of macrophages and T cells could be detected in the remaining cell suspension. The probabilities in Table 1 are as follows: *=p<0.025 and **=p<0.005. There were three observations per group. As shown by Table 1, the number of peripheral blood derived BFU-E increased three fold in the presence 0.32 nM of α-ANF[1-28] in cultures containing 250 mU/ml of Epo and less than 0.3% of T cells and macrophages.

[2] = test system: erythroid precursors (BFU-E and CFU-E); experiment: erythroid progenitor BFU-E and CFU-E assay (statements covering both progenitors); type: cell-based, human; conditions: for effect on the stimulatory effect of Epo on both BFU-E and CFU-E: ANF analog 0.32 nM + Epo 250 mU/ml; for potentiation of erythropoiesis versus concentration: with Epo
Source text: (§1) Utilization of cell culture techniques allowed for the detection of molecules other than Epo which act on erythropoietic precursor cells. […] The erythroid progenitor BFU-E and CFU-E assay was utilized for the in vitro studies by the following method:
(§2) (1) Collect bone marrow cells from normal human volunteers after obtaining informed consent.
(§3) (2) Suspend cells in α-medium containing 10% fetal calf serum.
(§4) (3) Separate by Ficoll-Hypaque gradient to obtain an enriched mononuclear cell population.
(§5) (4) Culture cells (5×10^4 per plate) in petri dishes using a methylcellulose technique (see, Iscove, J. Cell Physiol 83: 309, (1974)).
(§6) (5) Add Human Epo, available from the Toyoba Corp. of New York, N.Y., to the culture on day zero.
(§7) (6) Add ANF-like peptides on days zero, two, five, eight, and eleven.
(§8) In the absence of Epo, ANF has no effect on erythroid colony formation. In FIG. 1, the effects of α-ANF[1-28] alone and in conjunction with an added amount of Epo were studied. Human α-ANF[1-28] diluted in α-medium, obtained from the Peninsula Corporation, was added to the cultures every three days starting at day zero. Control cultures were supplemented with Phosphate Buffered Saline (PBS) alone. PBS is available from the GIBCO corporation of Grand Island, N.Y. Triplicate plates were incubated at 37° C. in a humidified atmosphere of 7% CO2 in air. On the eighth day, cell aggregates which contained more than seven erythroid cells were counted as CFU-E. On the fourteenth day, aggregates of forty cells or more were counted as BFU-E. Hemoglobinization of the cells was confirmed by using a Soret band and morphologically from stained smears. In FIG. 1, the number of observations is indicated in the bottom part of the bar. The standard estimates from mean (SEM) are indicated as error bars. Statistical significances were obtained by using Kruskal-Wallis Analysis of Variance (one way by ranks). Probabilities in FIGS. 1 and 2 are indicated by: 1*=p<0.05; 2*=p<0.01;3*=p<0.005; and 4*=p<0.001. […] The relative increase of Epo activity caused by the presence of ANF is the subject of this invention.
The numbers were determined using the lowest ANF concentration as a reference point in each group. There were six observations per group. […] The number values for BFU-E and CFU-E in a culture containing 0.25 U/ml Epo and 0.32 nM α-ANF[1-28] are different for FIGS. 1 and 2 because different human volunteer bone marrow donors were used for each study. The absolute numbers are not the focus of this invention, rather, the subject of this invention is the relative increase in the production of BFU-E and CFU-E caused by Epo in the presence of ANF.

[3] = test system: CFU-E; experiment: erythroid progenitor CFU-E assay, human bone marrow cells in methylcellulose culture; type: cell-based; conditions: for Potentiation of CFU-E(%): ANF analog 0.32 nM + Epo 250 mU/ml, relative to effect of α-ANF[1-28] (100%)
Source text: as §1, §2, §3, §4, §5, §6, §7, §8

[4] = test system: BFU-E; experiment: erythroid progenitor BFU-E assay, human bone marrow cells in methylcellulose culture; type: cell-based; conditions: for Potentiation of BFU-E(%): ANF analog 0.32 nM + Epo 250 mU/ml, relative to effect of α-ANF[1-28] (100%)
Source text: as §1, §2, §3, §4, §5, §6, §7, §8

[5] = in the presence of α-ANF[1-28] 0.32 nM and Epo 250 mU/ml

Substance | effect on the stimulatory effect of Epo on both BFU-E and CFU-E [2] | Potentiation of CFU-E(%) [3] [%] | Potentiation of BFU-E(%) [4] [%] | other results
erythropoietin [Epo] |  |  |  | BFU-E/culture ± SEM ([1]; Experiment 1, Epo 250 mU/ml alone): 7.0 ± 0.9; BFU-E/culture ± SEM ([1]; Experiment 2, Epo 250 mU/ml alone): 14.0 ± 2.0; BFU-E and CFU-E yield ([2]; 2,000 mU/ml of Epo compared with 250 mU/ml of Epo, identical α-ANF[1-28] concentrations): higher; effect of Epo alone on erythroid precursors ([2]; Epo alone 250 mU/ml): stimulated both erythroid precursors
α-ANF [1-11] (SLRRSSCFGGR; Atrial natriuretic peptide; UniProt P01160 124-134, looked up, fragment) [ANF[1-11], ANF analog available from the Peninsula Corporation] | not significant | 14.8 ± 4.6 | -1.5 ± 8.8 | 
α-ANF dimer | not significant | 25.4 ± 13.1 | 40.2 ± 26.7 | 
α-ANF[1-28] (SLRRSSCFGGRMDRIGAQSGLGCNSFRY; not fully specified; ends and bridges not checked; UniProt P01160 124-151, looked up) [human atrial natriuretic factor peptide, obtained from the Peninsula Corporation] | enhanced | 100 ± 39.2 | 100 ± 24.9 | increase in number of peripheral blood derived BFU-E ([1]; 0.32 nM α-ANF[1-28], 250 mU/ml Epo, less than 0.3% of T cells and macrophages): three fold; BFU-E/culture ± SEM ([1]; Experiment 1, ANF 0.32nM + Epo 250 mU/ml): 22.7 ± 1.9; BFU-E/culture ± SEM ([1]; Experiment 2, ANF 0.32nM + Epo 250 mU/ml): 42.3 ± 6.8; effect on erythroid precursors / erythroid colony formation in the absence of Epo ([2]; ANF alone, no Epo (0.32 nM in FIG. 1)): no effect; increase of BFU-E and CFU-E production ([2]; in the presence of Epo): up to four fold; potentiation of erythropoiesis versus concentration ([2]; α-ANF[1-28] concentrations above 0.96 nM): leveled off or even declined; potentiation of erythropoiesis versus concentration ([2]; α-ANF[1-28] increased from 0.032 nM to 0.96 nM): concentration dependent potentiation; increase in CFU-E ([3]; Epo 250 mU/ml plus α-ANF[1-28] 0.32 nM versus Epo alone): two-fold; actual numbers of CFU-E [3, 5]: 440±176; increase in BFU-E ([4]; Epo 250 mU/ml plus α-ANF[1-28] 0.32 nM versus Epo alone (FIG. 1)): four-fold; actual numbers of BFU-E [4, 5]: 103±26
α-ANF[4-28] (RSSCFGGRMDRIGAQSGLGCNSFRY; ends and bridges not checked; cysteine pairing not given here; UniProt P01160 127-151, looked up, fragment) [ANF analog available from the Peninsula Corporation; a major circulatory form of ANF] | enhanced | 208 ± 41.0 | 74.8 ± 15.3 | 
α-ANF[5-28] (SSCFGGRMDRIGAQSGLGCNSFRY; ends and bridges not checked; cysteine pairing not given here; UniProt P01160 128-151, looked up, fragment) [ANF analog available from the Peninsula Corporation; a major circulatory form of ANF] | enhanced | 143 ± 26.7 | 98.5 ± 38.6 | 
